Measured values published in patent US20100285149A1, “NOVEL TETRAHYDROPYRIDOTHIOPHENES” (priority 2006, published 2010).

Columns and labels:
[1] = system: RKO (RKOp27) human colon adenocarcinoma cells; assay: Alamar Blue cell viability assay, proliferating (uninduced) RKO p27 cells; assay type: cell-based; settings: anti-proliferative/cytotoxic activity, 72 hours incubation, no Ponasterone A
Protocol: The anti-proliferative/cytotoxic activity of the compounds described herein, can be tested on subclones of RKO (RKOp27) human colon adenocarcinoma cells (Schmidt et al., Oncogene 19, 2423-2429; 2000) using the Alamar Blue cell viability assay (described in O'Brien et al. Eur J Biochem 267, 5421-5426, 2000). The compounds are dissolved as 20 mM solutions in dimethylsulfoxide (DMSO) and subsequently diluted in semi-logarithmic steps. DMSO dilutions are further diluted 1:100 into Dulbecco's modified Eagle's medium (DMEM) containing 10% fetal calf serum to a final concentration twice as much as the final concentration in the test. RKO subclones are seeded into 96 well flat bottom plates at a density of 5000 cells per well in a volume of 50 μl per well. 24 hours after seeding the 50 μl each of the compound dilutions in DMEM medium are added into each well of the 96 Well plate. Each compound dilution is tested as quadruplicates. Wells containing untreated control cells are filled with 50 μl DMEM medium containing 1% DMSO. The cells are then incubated with the substances for 72 hours at 37° C. in a hunified atmosphere containing 5% carbon dioxide. To determine the viability of the cells, 10 μl of an Alamar Blue solution (Biosource) are added and the fluorescence is measured at an extinction of 544 nm and an emission of 590 nm. For the calculation of the cell viability the emission value from untreated cells is set as 100% viability and the emission rates of treated cells are set in relation to the values of untreated cells. Viabilities are expressed as % values.
The corresponding IC50 values of the compounds for anti-proliferative/cytotoxic activity are determined from the concentration-effect curves.
(§1) Representative IC50 values for anti-proliferation/cytotoxicity determined in the mentioned assays follow from the following table A, in which the numbers of the compound correspond to the numbers of the examples.

[2] = system: RKO colon adenocarcinoma cells (RKOp27) arrested by the expression of ectopic p27Kip1; assay: Alamar Blue cell viability assay, RKO p27 cells arrested by Ponasterone A induced p27Kip1; assay type: cell-based; settings: Homo sapiens, anti-proliferative/cytotoxic activity, 72 hours incubation, 10 μM Ponasterone A
Protocol: To determine the cell cycle specific mode of action, subclones of RKO colon adenocarcinoma cells (RKOp27 or RKOp21 as described by Schmidt et al. in Oncogene 19, 2423-2429; 2000) are seeded into 96 well flat bottom plates at a density of 15000 cells per well in a volume of 50 μl per well in DMEM growth medium with 10% FCS containing 10 μM Ponasterone A. 24 hours after seeding the 50 μl each of the compound dilutions in DMEM medium are added into each well of the 96 Well plate. Each compound dilution is tested as quadruplicates. Wells containing untreated control cells are filled with 50 μl DMEM medium containing 1% DMSO. The cells are then incubated with the substances for 72 hours at 37° C. in a humidified athmosphere containing 5% carbon dioxide. To determine the viability of the cells, 10 μl of an Alamar Blue solution (Biosource) are added and the fluorescence was measured at an extinction of 544 nm and an emission of 590 nm. For the calculation of the cell viability the emission value from untreated cells is set as 100% viability and the emission rates of treated cells are set in relation to the values of untreated cells. Viabilities are expressed as % values. Viability is compared of proliferating cells grown in the absence of the inducer Ponasterone A, versus viability of cells arrested by the expression of ectopic p27Kip1 induced by Ponasterone A.
as §1

Structure (SMILES)	IC50 [1]	IC50 [2]
CCNC(=O)N1CCc2c(sc(NC(=O)CCC3CCCCC3)c2C#N)C1 [Example 118, 3-Cyano-2-(3-cyclohexyl-propanoylamino)-4,7-dihydro-5H-thieno[2,3-c]pyridine-6-carboxylic acid ethylamide]	≤ 0.5 µM	≥ 100 µM
CCNC(=O)N1CCc2c(sc(NC(=O)CCc3cccc(OC)c3)c2C#N)C1 [Example 108, 3-Cyano-2-[3-(3-methoxy-phenyl)-propanoylamino]-4,7-dihydro-5H-thieno[2,3-c]pyridine-6-carboxylic acid ethylamide]	≤ 0.5 µM	≥ 100 µM
COc1cccc(CCC(=O)Nc2sc3c(c2C#N)CCN(C(=O)NCCc2cn(C)cn2)C3)c1 [Example 71, 3-Cyano-2-[3-(3-methoxy-phenyl)-propanoylamino]-4,7-dihydro-5H-thieno[2,3-c]pyridine-6-carboxylic acid [2-(1-methyl-1H-imidazol-4-yl)-ethyl]-amide]	0.5 to 2 µM	≥ 100 µM
CCNC(=O)N1CCc2c(sc(NC(=O)CCc3cc(C)ccc3OC)c2C#N)C1 [Example 107, 3-Cyano-2-[3-(2-methoxy-5-methyl-phenyl)-propanoylamino]-4,7-dihydro-5H-thieno[2,3-c]pyridine-6-carboxylic acid ethylamide]	≤ 0.5 µM	≥ 100 µM
CCNC(=O)N1CCc2c(sc(NC(=O)CC(C)c3ccccc3)c2C#N)C1 (stereo not drawn) [Example 114, 3-Cyano-2-(3-phenyl-butanoylamino)-4,7-dihydro-5H-thieno[2,3-c]pyridine-6-carboxylic acid ethylamide]	≤ 0.5 µM	≥ 100 µM
CCNC(=O)N1CCc2c(sc(NC(=O)C3CC3c3ccccc3OC)c2C#N)C1 (racemic) [Example 116, 3-Cyano-2-({1-[(RS)-2-(2-methoxy-phenyl)-cyclopropyl]-methanoyl}-amino)-4,7-dihydro-5H-thieno[2,3-c]pyridine-6-carboxylic acid ethylamide]	≤ 0.5 µM	≥ 100 µM
CCNC(=O)N1CCc2c(sc(NC(=O)C3CC3c3cccc(OC)c3)c2C#N)C1 (racemic) [Example 117, 3-Cyano-2-({1-[(RS)-2-(3-methoxy-phenyl)-cyclopropyl]-methanoyl}-amino)-4,7-dihydro-5H-thieno[2,3-c]pyridine-6-carboxylic acid ethylamide]	≤ 0.5 µM	≥ 60 µM
CCNC(=O)N1CCc2c(sc(NC(=O)CCc3ccccc3OCC)c2C#N)C1 [Example 106, 3-Cyano-2-[3-(2-ethoxy-phenyl)-propanoylamino]-4,7-dihydro-5H-thieno[2,3-c]pyridine-6-carboxylic acid ethylamide]	≤ 0.5 µM	≥ 100 µM
CCNC(=O)N1CCc2c(sc(NC(=O)CC(C)c3ccccc3OC)c2C#N)C1 (stereo not drawn) [Example 111, 3-Cyano-2-[3-(2-methoxy-phenyl)-butanoylamino]-4,7-dihydro-5H-thieno[2,3-c]pyridine-6-carboxylic acid ethylamide]	≤ 0.5 µM	≥ 60 µM
CCNC(=O)N1CCc2c(sc(NC(=O)CCc3ccco3)c2C#N)C1 [Example 109, 3-Cyano-2-(3-furan-2-yl-propanoylamino)-4,7-dihydro-5H-thieno[2,3-c]pyridine-6-carboxylic acid ethylamide]	≤ 0.5 µM	≥ 100 µM
COc1ccccc1CCC(=O)Nc1sc2c(c1C#N)CCN(C(=O)NCCc1cn(C)cn1)C2 [Example 105, 3-Cyano-2-[3-(2-methoxy-phenyl)-propanoylamino]-4,7-dihydro-5H-thieno[2,3-c]pyridine-6-carboxylic acid [2-(1-methyl-1H-imidazol-4-yl)-ethyl]-amide]	≤ 0.5 µM	≥ 100 µM
CCNC(=O)N1CCc2c(sc(NC(=O)CCc3ccccc3)c2C#N)C1 [Example 115, 3-Cyano-2-(3-phenyl-propanoylamino)-4,7-dihydro-5H-thieno[2,3-c]pyridine-6-carboxylic acid ethylamide]	≤ 0.5 µM	≥ 100 µM
CCNC(=O)N1CCc2c(sc(NC(=O)CC(C)c3ccccc3OCC)c2C#N)C1 (stereo not drawn) [Example 112, 3-Cyano-2-[3-(2-ethoxy-phenyl)-butanoylamino]-4,7-dihydro-5H-thieno[2,3-c]pyridine-6-carboxylic acid ethylamide]	≤ 0.5 µM	≥ 100 µM
CCNC(=O)N1CCc2c(sc(NC(=O)CCc3ccccc3OC)c2C#N)C1 [Example 113, 3-Cyano-2-[3-(2-methoxy-phenyl)-propanoylamino]-4,7-dihydro-5H-thieno[2,3-c]pyridine-6-carboxylic acid ethylamide]	≤ 0.5 µM	≥ 100 µM
CCNC(=O)N1CCc2c(sc(NC(=O)CC(C)c3cccc(OC)c3)c2C#N)C1 (stereo not drawn) [Example 110, 3-Cyano-2-[3-(3-methoxy-phenyl)-butanoylamino]-4,7-dihydro-5H-thieno[2,3-c]pyridine-6-carboxylic acid ethylamide]	≤ 0.5 µM	≥ 100 µM
